Test results from patent US20230085307A1, “PYRIDAZINONE COMPOUND AND HERBICIDE” (NISSAN CHEMICAL CORPORATION, priority 2019, published 2023).

Key:
[1] = tested on: windgrass; test: Test Example 5: herbicidal effect by foliage application, plastic box (Table 20, symbol L); type: in vivo, windgrass (Apera spica-venti); details: foliage application, 320 g/ha, three weeks after application
Outline: (§1)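 Foliar spray test: emulsion formulation diluted in water to a set application rate, sprayed onto 14-day-old plants raised in diluvial soil at 25° C to 30° C under glass. Both herbicidal effect and crop effect rated visually three weeks later.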

[2] = tested on: barnyard grass; test: Test Example 3: herbicidal effect by foliage application, Wagner pot (Table 18, symbol H); type: in vivo, barnyard grass (Echinochloa crus-galli)
Outline: (§2)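 Plants were sown in alluvial soil held under 0.1–0.5 cm standing water and grown 14 days in a greenhouse at 25–30 °C. An emulsifiable formulation, water-diluted to the set dose, was then sprayed onto the foliage, and effects were scored three weeks later using previously defined criteria.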

[3] = tested on: chickweed; test: Test Example 5: herbicidal effect by foliage application, plastic box (Table 20, symbol P); type: in vivo, common chickweed (Stellaria media); details: foliage application, 320 g/ha, three weeks after application
Outline: as §1

[4] = tested on: wild oat; test: Test Example 5: herbicidal effect by foliage application, plastic box (Table 20, symbol I); type: in vivo, wild oat (Avena fatua); details: foliage application, 320 g/ha, three weeks after application
Outline: as §1

[5] = tested on: redroot pigweed; test: Test Example 5: herbicidal effect by foliage application, plastic box (Table 20, symbol N); type: in vivo, redroot pigweed (Amaranthus retroflexus); details: foliage application, 320 g/ha, three weeks after application
Outline: as §1

[6] = tested on: green foxtail; test: Test Example 5: herbicidal effect by foliage application, plastic box (Table 20, symbol G); type: in vivo, green foxtail (Setaria viridis); details: foliage application, 320 g/ha, three weeks after application
Outline: as §1

[7] = tested on: southern crabgrass; test: Test Example 5: herbicidal effect by foliage application, plastic box (Table 20, symbol F); type: in vivo, southern crabgrass (Digitaria ciliaris); details: foliage application, 320 g/ha, three weeks after application
Outline: as §1

[8] = tested on: persian speedwell; test: Test Example 5: herbicidal effect by foliage application, plastic box (Table 20, symbol R); type: in vivo, Persian speedwell (Veronica persica); details: foliage application, 320 g/ha, three weeks after application
Outline: as §1

[9] = tested on: barnyard grass; test: Test Example 5: herbicidal effect by foliage application, plastic box (Table 20, symbol H); type: in vivo, barnyard grass (Echinochloa crus-galli); details: foliage application, 320 g/ha, three weeks after application
Outline: as §1

[10] = tested on: velvetleaf; test: Test Example 5: herbicidal effect by foliage application, plastic box (Table 20, symbol M); type: in vivo, velvetleaf (Abutilon theophrasti); details: foliage application, 320 g/ha, three weeks after application
Outline: as §1

[11] = tested on: lambsquarters; test: Test Example 5: herbicidal effect by foliage application, plastic box (Table 20, symbol O); type: in vivo, lambsquarters (Chenopodium album); details: foliage application, 320 g/ha, three weeks after application
Outline: as §1

[12] = tested on: Italian ryegrass; test: Test Example 5: herbicidal effect by foliage application, plastic box (Table 20, symbol K); type: in vivo, Italian ryegrass (Lolium multiflorum); details: foliage application, 320 g/ha, three weeks after application
Outline: as §1

[13] = tested on: Chinese sprangletop; test: Test Example 3: herbicidal effect by foliage application, Wagner pot (Table 18, symbol D); type: in vivo, chinese sprangletop (Leptochloa chinensis)
Outline: as §2

[14] = tested on: rice flat sedge; test: Test Example 3: herbicidal effect by foliage application, Wagner pot (Table 18, symbol E); type: in vivo, rice flat sedge (Cyperus iria)
Outline: as §2

[15] = tested on: blackgrass; test: Test Example 5: herbicidal effect by foliage application, plastic box (Table 20, symbol J); type: in vivo, blackgrass (Alopecurus myosuroides); details: foliage application, 320 g/ha, three weeks after application
Outline: as §1

[16] = amount of applied herbicide 320 g/ha

| SMILES | L: windgrass, herbicidal effect grade [1] | P: chickweed, herbicidal effect grade [3] | I: wild oat, herbicidal effect grade [4] | N: redroot pigweed, herbicidal effect grade [5] | G: green foxtail, herbicidal effect grade [6] | F: southern crabgrass, herbicidal effect grade [7] | R: persian speedwell, herbicidal effect grade [8] | H: barnyard grass, herbicidal effect grade [9] | M: velvetleaf, herbicidal effect grade [10] | O: lambsquarters, herbicidal effect grade [11] | K: Italian ryegrass, herbicidal effect grade [12] | J: blackgrass, herbicidal effect grade [15] | further results |
| --- | --- | --- | --- | --- | --- | --- | --- | --- | --- | --- | --- | --- | --- |
| COc1ccccc1-c1sc2cc(F)ccc2c1-c1c(OC(=O)c2ccccc2C)c(C)nn(C)c1=O [3-022] | 0 (Herbicidal rate of 5% or less (almost no effect)) | 3 (Herbicidal rate of 40% or more and less than 70%) | 0 (Herbicidal rate of 5% or less (almost no effect)) | 3 (Herbicidal rate of 40% or more and less than 70%) | 0 (Herbicidal rate of 5% or less (almost no effect)) | 0 (Herbicidal rate of 5% or less (almost no effect)) | 0 (Herbicidal rate of 5% or less (almost no effect)) | 0 (Herbicidal rate of 5% or less (almost no effect)) | 0 (Herbicidal rate of 5% or less (almost no effect)) | 0 (Herbicidal rate of 5% or less (almost no effect)) | 0 (Herbicidal rate of 5% or less (almost no effect)) | 0 (Herbicidal rate of 5% or less (almost no effect)) | herbicidal effect on H: barnyard grass [2, 16]: 4 (Herbicidal rate of 70% or more and less than 90%); herbicidal effect on D: Chinese sprangletop [13, 16]: 2 (Herbicidal rate of 20% or more and less than 40%); herbicidal effect on E: rice flat sedge [14, 16]: 0 (Herbicidal rate of 5% or less (almost no effect)) |
| CCOc1ccccc1-c1sc2cc(O)ccc2c1-c1c(O)c(C)nn(C)c1=O [3-097] | 2 (Herbicidal rate of 20% or more and less than 40%) | 3 (Herbicidal rate of 40% or more and less than 70%) | 1 (Herbicidal rate of 5% or more and less than 20%) | 4 (Herbicidal rate of 70% or more and less than 90%) | 5 (Herbicidal rate of 90% or more (almost completely withered)) | 4 (Herbicidal rate of 70% or more and less than 90%) | 3 (Herbicidal rate of 40% or more and less than 70%) | 2 (Herbicidal rate of 20% or more and less than 40%) | 3 (Herbicidal rate of 40% or more and less than 70%) | 3 (Herbicidal rate of 40% or more and less than 70%) | 0 (Herbicidal rate of 5% or less (almost no effect)) | 0 (Herbicidal rate of 5% or less (almost no effect)) | herbicidal effect on barnyard grass (H) ([2]; 320 g/ha): 4 (Herbicidal rate of 70% or more and less than 90%); herbicidal effect on Chinese sprangletop (D) ([13]; 320 g/ha): 4 (Herbicidal rate of 70% or more and less than 90%); herbicidal effect on rice flat sedge (E) ([14]; 320 g/ha): 3 (Herbicidal rate of 40% or more and less than 70%) |
| CCCC(=O)Oc1c(C)nn(C)c(=O)c1-c1c(-c2ccccc2SC)sc2ccccc12 [1-035] | – | – | – | – | – | – | – | – | – | – | – | – | herbicidal effect grade, L: windgrass [1]: 0 (Herbicidal rate of 5% or less (almost no effect)); herbicidal effect on H (barnyard grass), rating 0-5 ([2]; 320 g/ha): 3 (Herbicidal rate of 40% or more and less than 70%); herbicidal effect grade, P: chickweed [3]: 1 (Herbicidal rate of 5% or more and less than 20%); herbicidal effect grade, I: wild oat [4]: 3 (Herbicidal rate of 40% or more and less than 70%); herbicidal effect grade, N: redroot pigweed [5]: 0 (Herbicidal rate of 5% or less (almost no effect)); herbicidal effect grade, G: green foxtail [6]: 0 (Herbicidal rate of 5% or less (almost no effect)); herbicidal effect grade, F: southern crabgrass [7]: 0 (Herbicidal rate of 5% or less (almost no effect)); herbicidal effect grade, R: persian speedwell [8]: 0 (Herbicidal rate of 5% or less (almost no effect)); herbicidal effect grade, H: barnyard grass [9]: 0 (Herbicidal rate of 5% or less (almost no effect)); herbicidal effect grade, M: velvetleaf [10]: 0 (Herbicidal rate of 5% or less (almost no effect)); herbicidal effect grade, O: lambsquarters [11]: 0 (Herbicidal rate of 5% or less (almost no effect)); herbicidal effect grade, K: Italian ryegrass [12]: 0 (Herbicidal rate of 5% or less (almost no effect)); herbicidal effect on D (Chinese sprangletop), rating 0-5 ([13]; 320 g/ha): 0 (Herbicidal rate of 5% or less (almost no effect)); herbicidal effect on E (rice flat sedge), rating 0-5 ([14]; 320 g/ha): 4 (Herbicidal rate of 70% or more and less than 90%); herbicidal effect grade, J: blackgrass [15]: 0 (Herbicidal rate of 5% or less (almost no effect)) |
